Experimental data reported in patent publication US20260232658A1, “AZETIDINYL BENZOXAZOLE COMPOUNDS AND THEIR USE AS MER AND AXL INHIBITORS” (DONG-A ST CO., LTD., priority 2022, published 2026).

Tests used:
[1] = molecular target: T1, human MER (528-end) (Homo sapiens, UniProt Q12866); assay: HTRF kinase activity biochemical assay, MER; settings: recombinant kinase, 10 uM ATP, 30 minutes pre-incubation; read-out: HTRF MERTK IC50;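 further: phosphorylation of a biotin-tagged tyrosine kinase substrate detected by Eu3+-cryptate antibody and streptavidin-XL665 time-resolved fluorescence, read after 1 h at room temperature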
T1 construct: human MER (528-end); purchased Carnabio, Japan
T1 sequence (Q12866 528-999 limits assumed): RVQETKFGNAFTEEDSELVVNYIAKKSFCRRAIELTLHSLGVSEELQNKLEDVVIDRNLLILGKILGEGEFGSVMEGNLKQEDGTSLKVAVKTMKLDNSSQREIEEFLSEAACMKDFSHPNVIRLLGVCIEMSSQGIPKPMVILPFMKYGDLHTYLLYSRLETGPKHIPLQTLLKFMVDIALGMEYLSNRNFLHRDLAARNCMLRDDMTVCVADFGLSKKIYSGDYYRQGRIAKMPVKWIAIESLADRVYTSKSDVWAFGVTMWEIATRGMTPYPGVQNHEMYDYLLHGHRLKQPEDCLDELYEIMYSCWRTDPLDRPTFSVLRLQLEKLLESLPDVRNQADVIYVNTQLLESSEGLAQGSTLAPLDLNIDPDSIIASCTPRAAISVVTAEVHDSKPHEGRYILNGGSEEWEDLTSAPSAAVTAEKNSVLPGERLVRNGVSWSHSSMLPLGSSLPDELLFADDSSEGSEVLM

[2] = molecular target: T2, human AXL (473-end) (Homo sapiens, UniProt P30530); assay: HTRF kinase activity biochemical assay, AXL; settings: recombinant kinase, 10 uM ATP, 30 minutes pre-incubation; read-out: HTRF AXL IC50;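 further: phosphorylation of a biotinylated tyrosine kinase substrate detected via Eu3+-cryptate anti-TK antibody and streptavidin-XL665, fluorescence read after a 1 h incubation at room temperature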
T2 construct: human AXL (473-end); purchased SignalChem, Canada
T2 sequence (P30530 473-894 limits assumed): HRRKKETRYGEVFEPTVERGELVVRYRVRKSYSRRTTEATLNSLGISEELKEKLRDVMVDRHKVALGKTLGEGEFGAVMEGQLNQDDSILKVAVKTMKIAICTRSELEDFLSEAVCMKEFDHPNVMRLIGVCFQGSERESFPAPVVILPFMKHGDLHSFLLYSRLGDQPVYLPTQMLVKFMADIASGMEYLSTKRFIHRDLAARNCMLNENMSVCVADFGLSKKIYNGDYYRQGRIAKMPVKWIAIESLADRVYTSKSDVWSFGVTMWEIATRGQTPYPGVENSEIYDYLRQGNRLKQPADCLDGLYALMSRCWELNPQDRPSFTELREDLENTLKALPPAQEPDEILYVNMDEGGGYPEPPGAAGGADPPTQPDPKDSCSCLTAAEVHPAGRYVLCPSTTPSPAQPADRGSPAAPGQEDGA

[3] = molecular target: T3, TYRO3 (455-end) (Homo sapiens, UniProt Q06418); assay: HTRF kinase activity biochemical assay, TYRO3; settings: recombinant kinase, 10 uM ATP, 30 minutes pre-incubation; read-out: HTRF TYRO IC50;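 further: biotinylated tyrosine kinase substrate phosphorylation detected via streptavidin-XL665 and Eu3+-cryptate anti-phospho antibody time-resolved fluorescence, read after 1 h detection at room temperature, 384-well format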
T3 construct: TYRO3 (455-end); purchased SignalChem, Canada
T3 sequence (Q06418 455-890 limits assumed): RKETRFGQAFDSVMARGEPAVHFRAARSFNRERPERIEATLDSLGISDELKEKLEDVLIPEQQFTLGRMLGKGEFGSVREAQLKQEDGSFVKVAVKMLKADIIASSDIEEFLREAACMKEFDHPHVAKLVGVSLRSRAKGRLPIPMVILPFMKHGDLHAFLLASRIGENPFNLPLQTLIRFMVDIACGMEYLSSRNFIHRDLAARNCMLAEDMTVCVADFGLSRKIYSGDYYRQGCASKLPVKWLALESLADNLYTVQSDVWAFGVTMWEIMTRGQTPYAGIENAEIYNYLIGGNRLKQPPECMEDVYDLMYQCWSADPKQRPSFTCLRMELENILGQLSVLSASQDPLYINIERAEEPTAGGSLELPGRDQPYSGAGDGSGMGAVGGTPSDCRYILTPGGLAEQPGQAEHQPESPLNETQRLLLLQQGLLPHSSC

SMILES: NC(=O)c1nc(C2CN(c3nc4ccc(F)cc4o3)C2)cnc1Nc1cnn(CC(O)CO)c1 (stereo not drawn) [Example 36, 3-{[1-(2,3-dihydroxypropyl)-1H-pyrazol-4-yl]amino}-6-[1-(6-fluoro-1,3-benzoxazol-2-yl)azetidin-3-yl]pyrazine-2-carboxamide]
- IC50 [1]: 1 nM
- IC50 [2]: 9 nM
- IC50 [3]: 170 nM

SMILES: CCOC(=O)C(C)(C)c1ccc2nc(N3CC(c4cnc(Nc5cnn(C)c5)c(C(N)=O)n4)C3)oc2c1 [Example 111F, ethyl 2-[2-(3-{6-carbamoyl-5-[(1-methyl-1H-pyrazol-4-yl)amino]pyrazin-2-yl}azetidin-1-yl)-1,3-benzoxazol-6-yl]-2-methylpropanoate]
- IC50 [1]: 18 nM
- IC50 [2]: 43 nM
- IC50 [3]: 3230 nM

SMILES: Cn1cc(Nc2ncc(C3CN(c4nc5ccc(C6=CCCC6)cc5o4)C3)nc2C(N)=O)cn1 [Example 10A, 6-{1-[6-(cyclopent-1-en-1-yl)-1,3-benzoxazol-2-yl]azetidin-3-yl}-3-[(1-methyl-1H-pyrazol-4-yl)amino]pyrazine-2-carboxamide]
- IC50 [1]: 3 nM
- IC50 [2]: 4 nM
- IC50 [3]: 690 nM

SMILES: Cn1cc(Nc2ncc(C3CN(c4nc5ccc(-c6ccc(OCCO)cc6)cc5o4)C3)nc2C(N)=O)cn1 [Example 89, 6-(1-{6-[4-(2-hydroxyethoxy)phenyl]-1,3-benzoxazol-2-yl}azetidin-3-yl)-3-[(1-methyl-1H-pyrazol-4-yl)amino]pyrazine-2-carboxamide]
- IC50 [1]: 1 nM
- IC50 [2]: 6 nM
- IC50 [3]: 260 nM

SMILES: NC(=O)c1nc(C2CN(c3nc4ccc(F)cc4o3)C2)cnc1Nc1cnn(C2CCOCC2)c1 [Example 27, 6-[1-(6-fluoro-1,3-benzoxazol-2-yl)azetidin-3-yl]-3-{[1-(oxan-4-yl)-1H-pyrazol-4-yl]amino}pyrazine-2-carboxamide]
- IC50 [1]: 1 nM
- IC50 [2]: 3 nM
- IC50 [3]: 82 nM

SMILES: CC(C)(O)CCOc1ccc2nc(N3CC(c4cnc(Nc5cnn(COCC[Si](C)(C)C)c5)c(C(N)=O)n4)C3)oc2c1 [Example 96A, 6-{1-[6-(3-hydroxy-3-methylbutoxy)-1,3-benzoxazol-2-yl]azetidin-3-yl}-3-[(1-{[2-(trimethylsilyl)ethoxy]methyl}-1H-pyrazol-4-yl)amino]pyrazine-2-carboxamide]
- IC50 [1]: 11 nM
- IC50 [2]: 31 nM
- IC50 [3]: 1390 nM

SMILES: CCOC(=O)COc1ccc2nc(N3CC(c4cnc(Nc5cnn(C)c5)c(C(N)=O)n4)C3)oc2c1 [Example 26, ethyl {[2-(3-{6-carbamoyl-5-[(1-methyl-1H-pyrazol-4-yl)amino]pyrazin-2-yl}azetidin-1-yl)-1,3-benzoxazol-6-yl]oxy}acetate]
- IC50 [1]: < 1 nM
- IC50 [2]: 3 nM
- IC50 [3]: 94 nM

SMILES: Cn1cc(Nc2ncc(C3CN(c4nc5ccc(C(F)(F)F)cc5o4)C3)nc2C(N)=O)cn1 [Example 12, 3-[(1-methyl-1H-pyrazol-4-yl)amino]-6-{1-[6-(trifluoromethyl)-1,3-benzoxazol-2-yl]azetidin-3-yl}pyrazine-2-carboxamide]
- IC50 [1]: 1 nM
- IC50 [2]: 4 nM
- IC50 [3]: 220 nM

SMILES: Cn1cc(Nc2ncc(C3CN(c4nc5ccc(CO)cc5o4)C3)nc2C(N)=O)cn1 [Example 16, 6-{1-[6-(hydroxymethyl)-1,3-benzoxazol-2-yl]azetidin-3-yl}-3-[(1-methyl-1H-pyrazol-4-yl)amino]pyrazine-2-carboxamide]
- IC50 [1]: 7 nM
- IC50 [2]: 30 nM
- IC50 [3]: 860 nM

SMILES: Cn1cc(Nc2ncc(C3CN(c4nc5ccc(OCC(C)(C)CO)cc5o4)C3)nc2C(N)=O)cn1 [Example 61, 6-{1-[6-(3-hydroxy-2,2-dimethylpropoxy)-1,3-benzoxazol-2-yl]azetidin-3-yl}-3-[(1-methyl-1H-pyrazol-4-yl)amino]pyrazine-2-carboxamide]
- IC50 [1]: < 1 nM
- IC50 [2]: 1 nM
- IC50 [3]: 26 nM

SMILES: Cn1cc(Nc2ncc(C3CN(c4nc5ccc(OCC6CC(O)C6)cc5o4)C3)nc2C(N)=O)cn1 (stereo not drawn) [Example 42, 6-(1-{6-[(3-hydroxycyclobutyl)methoxy]-1,3-benzoxazol-2-yl}azetidin-3-yl)-3-[(1-methyl-1H-pyrazol-4-yl)amino]pyrazine-2-carboxamide]
- IC50 [1]: < 1 nM
- IC50 [2]: 2 nM
- IC50 [3]: 64 nM

SMILES: Cn1cc(Nc2ncc(C3CN(c4nc5ccc(OCC#N)cc5o4)C3)nc2C(N)=O)cn1 [Example 24, 6-{1-[6-(cyanomethoxy)-1,3-benzoxazol-2-yl]azetidin-3-yl}-3-[(1-methyl-1H-pyrazol-4-yl)amino]pyrazine-2-carboxamide]
- IC50 [1]: 2 nM
- IC50 [2]: 3 nM
- IC50 [3]: 130 nM

SMILES: Cn1cc(Nc2ncc(C3CN(c4nc5ccc(O[C@H]6CCOC6)cc5o4)C3)nc2C(N)=O)cn1 [Example 69, 3-[(1-methyl-1H-pyrazol-4-yl)amino]-6-[1-(6-{[(3S)-oxolan-3-yl]oxy}-1,3-benzoxazol-2-yl)azetidin-3-yl]pyrazine-2-carboxamide]
- IC50 [1]: 2 nM
- IC50 [2]: 8 nM
- IC50 [3]: 570 nM

SMILES: CN(C)C(=O)Cn1cc(Nc2ncc(C3CN(c4nc5ccccc5o4)C3)nc2C(N)=O)cn1 [Example 34, 6-[1-(1,3-benzoxazol-2-yl)azetidin-3-yl]-3-({1-[2-(dimethylamino)-2-oxoethyl]-1H-pyrazol-4-yl}amino)pyrazine-2-carboxamide]
- IC50 [1]: 8 nM
- IC50 [2]: 19 nM
- IC50 [3]: 620 nM

SMILES: Cn1cc(Nc2ncc(C3CN(c4nc5ccc(OCc6cnn(CCO)c6)cc5o4)C3)nc2C(N)=O)cn1 [Example 104, 6-[1-(6-{[1-(2-hydroxyethyl)-1H-pyrazol-4-yl]methoxy}-1,3-benzoxazol-2-yl)azetidin-3-yl]-3-[(1-methyl-1H-pyrazol-4-yl)amino]pyrazine-2-carboxamide]
- IC50 [1]: 8 nM
- IC50 [2]: 59 nM
- IC50 [3]: 3500 nM

SMILES: Cc1ccc2nc(N3CC(c4cnc(Nc5cn[nH]c5)c(C(N)=O)n4)C3)oc2c1 [Example 74, 6-[1-(6-methyl-1,3-benzoxazol-2-yl)azetidin-3-yl]-3-[(1H-pyrazol-4-yl)amino]pyrazine-2-carboxamide]
- IC50 [1]: 2 nM
- IC50 [2]: 4 nM
- IC50 [3]: 130 nM

SMILES: Cn1cc(Nc2ccc(C3CN(c4nc5ccc(OCC(C)(C)OC(=O)CN)cc5o4)C3)nc2C(N)=O)cn1 [Example 108, 1-{[2-(3-{6-carbamoyl-5-[(1-methyl-1H-pyrazol-4-yl)amino]pyridin-2-yl}azetidin-1-yl)-1,3-benzoxazol-6-yl]oxy}-2-methylpropan-2-yl glycinate]
- IC50 [1]: < 1 nM
- IC50 [2]: 4 nM
- IC50 [3]: 880 nM

SMILES: Cn1cc(Nc2ncc(C3CN(c4nc5ccc(/C=C/C(C)(C)O)cc5o4)C3)nc2C(N)=O)cn1 [Example 17, 6-(1-{6-[(1E)-3-hydroxy-3-methylbut-1-en-1-yl]-1,3-benzoxazol-2-yl}azetidin-3-yl)-3-[(1-methyl-1H-pyrazol-4-yl)amino]pyrazine-2-carboxamide]
- IC50 [2]: 2 nM
- IC50 [3]: 241 nM

SMILES: Cn1cc(Nc2ncc(C3CN(c4nc5ccc(OCC(=O)O)cc5o4)C3)nc2C(N)=O)cn1 [Example 73A, {[2-(3-f{6-carbamoyl-5-[(1-methyl-1H-pyrazol-4-yl)amino]pyrazin-2-yl}azetidin-1-yl)-1,3-benzoxazol-6-yl]oxy}acetic acid]
- IC50 [1]: 150 nM
- IC50 [2]: 210 nM

SMILES: Cn1cc(Nc2ncc(C3CN(c4nc5ccc(O)cc5o4)C3)nc2C(N)=O)cn1 [Example 20, 6-[I1-(6-hydroxy-1,3-benzoxazol-2-yl)azetidin-3-yl]-3-[(1-methyl-1H-pyrazol-4-yl)amino]pyrazine-2-carboxamide]
- IC50 [1]: 29 nM
- IC50 [3]: 980 nM
